Test results from US20090176792A1, “SUBSTITUTED DIBENZHYDRYLPIPERAZINES” (AUSPEX PHARMACEUTICALS, INC., priority 2008, published 2009).

What was measured:
[1] = In vitro liver microsomal stability assay; conditions: human liver microsomes 1 mg per mL, 1 μM, 37° C., vs non-isotopically enriched drug
Method: Test compounds were prepared as solutions in 20% acetonitrile-water and added to the assay mixture (final assay concentration 1 μM) and incubated at 37° C. Final concentration of acetonitrile in the assay should be <1%. Aliquots (50 μL) were taken out at times 0, 15, 30, 45, and 60 min, and diluted with ice cold acetonitrile (200 μL) to stop the reactions. Samples were centrifuged at 12,000 RPM for 10 min to precipitate proteins. Supernatants were transferred to micro centrifuge tubes and stored for LC/MS/MS analysis of the degradation half-life of the test compounds.

cytochrome P450 CYP2D6 = cytochrome P450 CYP2D6 (Homo sapiens, UniProt P10635); conditions: cited from earlier work
cytochrome P450 CYP2D6, sequence (P10635 whole entry): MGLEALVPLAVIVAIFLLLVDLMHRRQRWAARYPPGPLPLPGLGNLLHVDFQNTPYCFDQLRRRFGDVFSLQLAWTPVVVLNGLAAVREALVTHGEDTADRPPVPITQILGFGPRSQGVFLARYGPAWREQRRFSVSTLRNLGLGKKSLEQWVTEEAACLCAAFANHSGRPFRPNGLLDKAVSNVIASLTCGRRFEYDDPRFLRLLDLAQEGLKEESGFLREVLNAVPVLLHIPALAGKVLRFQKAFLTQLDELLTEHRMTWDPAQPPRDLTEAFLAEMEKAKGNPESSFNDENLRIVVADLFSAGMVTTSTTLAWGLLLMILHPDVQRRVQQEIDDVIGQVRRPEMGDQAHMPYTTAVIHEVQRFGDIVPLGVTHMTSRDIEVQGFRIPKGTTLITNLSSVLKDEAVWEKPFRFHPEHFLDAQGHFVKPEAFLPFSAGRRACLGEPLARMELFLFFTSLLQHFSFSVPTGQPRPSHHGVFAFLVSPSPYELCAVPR

% Increase of HLM degradation half-life ([1]; column 5-15%) | % Increase of HLM degradation half-life ([1]; column 0%-5%) | Compound | inhibition of cytochrome P450 CYP2D6 (cytochrome P450 CYP2D6)
+ (5-15%) | – | [2H]C([2H])([2H])N1CCN(C(c2ccccc2)c2ccccc2)CC1 [Example 2, d3-1-Benzhydryl-4-methylpiperazine] | –
– | + (0%-5%) | CN1CCN(C(c2ccccc2)c2ccccc2)CC1 [Example 1, 1-benzhydryl-4-methylpiperazine] | inhibit
